These results are taken from patent publication US12325696B2, “Indazole derivative, preparation method therefor, and pharmaceutical application thereof” (JIANGSU HENGRUI MEDICINE CO., LTD., priority 2019, dated 2025).

In assay [1] the test system is estrogen receptor reporter gene. As to the kind of experiment: Inhibition of estrogen receptor reporter gene activity (ERE-luc luciferase) in MCF7/ERE-luc cells. It counts as cell-based. As to conditions: Homo sapiens, 0.1 nM β-estradiol, 20 hours, read-out: IC50 of inhibitory activity on the activity of the estrogen receptor reporter gene. The gist of the method:
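MCF7 cells stably carrying ERE-driven luciferase, in charcoal-stripped serum medium, were stimulated with 0.1 nM β-estradiol plus compound (nine 10-fold dilutions from 10 μM) for 20 h at 37° C. ONE-Glo luminescence was read, and IC50 was fitted from signal versus log concentration.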

For assay [2], the target named is estrogen receptor ERα wild-type (Homo sapiens (Human), UniProt P03372). As to the kind of experiment: Covalent modification of ERα wild-type LBD by high-resolution mass spectrometry. It counts as binding. As to conditions: after 24 hours; 2 μM protein, 10 μM compound, 4° C. How it is done: (§1) The ligand binding domain (LBD, aa296-554) of estrogen receptor ERα wild-type and ERα Y537S mutant-type was expressed in E. coli and purified. 2 μM ERα wild-type or ERα Y537S mutant-type protein and 10 μM compound were added to a buffer solution containing 50 mM Tris-HCl, pH7.5, 150 mM NaCl, 1 mM TCEP and 5% glycerol and mixed well. The solution was incubated at 4° C. for 24 hours, followed by high-resolution mass spectrometry (Agilent Technologies, Agilent Q-tof 6530) assay. Alternatively, 1 μM ERα wild-type or ERα Y537S mutant-type protein and 3 μM compound were added to a buffer solution containing 50 mM Tris-HCl, pH7.5, 150 mM NaCl, 1 mM TCEP and 5% glycerol and mixed well. The solution was incubated at 37° C. for 15 minutes, followed by high-resolution mass spectrometry assay. In the mass spectrometry assay results, the peak whose molecular weight is the sum of the molecular weight of the protein and compound is the product of covalent modification. The percentage of covalent modification is obtained by calculating the ratio of […] to total protein.

The test system of the next assay is MCF7 cell. As to the kind of experiment: Inhibition of proliferation of MCF7 cell (CellTiter-Glo, 144 hours). The assay is classed as cell-based. Particulars: Homo sapiens; for IC50: MCF7, CellTiter-Glo, read-out: IC50 of the inhibitory effect on the proliferation of MCF7 cell; for Emax: MCF7 cell proliferation, read-out: Maximum inhibition. The gist of the method: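 Seeded overnight, MCF7 cells were treated in MEM with 2% FBS with nine 4-fold dilutions from 100 nM (0.5% DMSO blank). Incubation 144 h at 37° C, 5% CO2. CellTiter-Glo luminescence read; IC50 from signal versus log concentration.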

The subject of another assay is MCF7 ERαY537S. Briefly: Inhibition of proliferation of MCF7 cell expressing ERα Y537S mutant. The assay is classed as cell-based. As to conditions: Homo sapiens, 144 hours; for Emax: read-out: Maximum inhibition. The gist of the method:
(§2)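 MCF7 cells stably expressing lentiviral ERα Y537S or D538G mutants, seeded 3,000 cells/well, then exposed in 2% FBS MEM to nine 4-fold dilutions from 100 nM for 144 h at 37° C. Viability read by CellTiter-Glo luminescence; IC50 fitted from concentration-response.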

Assay [3] has as its target estrogen receptor ERα Y537S mutant-type (Homo sapiens (Human), UniProt P03372, Y537S). Briefly: Covalent modification of ERα Y537S mutant-type LBD by high-resolution mass spectrometry. It counts as binding. Particulars: after 24 hours; 2 μM protein, 10 μM compound, 4° C. The protocol:
as §1

The test system of a further assay is MCF7 D538G. Briefly: Inhibition of proliferation of MCF7 cell expressing ERα D538G mutant. The assay is classed as cell-based. As to conditions: Homo sapiens, 144 hours; for Emax: read-out: Maximum inhibition. The method, boiled down:
as §2

Chain of estrogen receptor ERα wild-type (P03372 296-554): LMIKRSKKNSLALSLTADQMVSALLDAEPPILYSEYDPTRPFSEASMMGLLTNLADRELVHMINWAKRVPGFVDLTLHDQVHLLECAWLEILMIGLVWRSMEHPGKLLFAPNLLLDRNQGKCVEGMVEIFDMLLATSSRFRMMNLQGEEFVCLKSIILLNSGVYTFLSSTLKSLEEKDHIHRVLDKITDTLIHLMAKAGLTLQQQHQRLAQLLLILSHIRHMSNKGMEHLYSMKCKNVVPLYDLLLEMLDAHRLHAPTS
Chain of estrogen receptor ERα Y537S mutant-type (P03372 296-554 Y537S): as the sequence (P03372 296-554) above, with Y242S counted along it

As to `O=C(/C=C/CNC1(COc2ccc(/C(=C(/CC(F)(F)F)c3ccccc3)c3ccc4[nH]nc(F)c4c3)cn2)CC1)N1CCCC1` [Example 2, (E)-1-(Pyrrolidin-1-yl)-4-((1-(((5-((Z)-4,4,4-trifluoro-1-(3-fluoro-1H-indazol-5-yl)-2-phenylbut-1-en-1-yl)pyridin-2-yl)oxy)methyl)cyclopropyl)amino)but-2-en-1-one], the IC50 in assay [1] was found to be 3 nM; in the assay on MCF7 cell, 0.6 nM; in the assay with MCF7 ERαY537S it was 3 nM; with MCF7 D538G, 2 nM. In assay [2], the “Covalent modification effect on the estrogen receptor ERα wild-type” value is listed as 87%. In addition, the Emax worked out at 112% with MCF7 cell, 107% in the assay with MCF7 ERαY537S and 104% with MCF7 D538G. In addition, in assay [3], the “Covalent modification effect on the estrogen receptor ERα Y537S mutant-type” value came to 90%.

`CN(C)C(=O)/C=C/CNC1(COc2ccc(/C(=C(/CC(F)(F)F)c3ccccc3)c3ccc4[nH]nc(F)c4c3)cn2)CCCCC1` [Example 8, (E)-N,N-Dimethyl-4-((1-(((5-((Z)-4,4,4-trifluoro-1-(3-fluoro-1H-indazol-5-yl)-2-phenylbut-1-en-1-yl)pyridin-2-yl)oxy)methyl)cyclohexyl)amino)but-2-enamide]: the IC50 stood at 3 nM in assay [1], 0.1 nM with MCF7 cell, 2 nM with MCF7 ERαY537S and 1 nM in the assay on MCF7 D538G. Moreover, the “Covalent modification effect on the estrogen receptor ERα wild-type” value in assay [2] is reported as 96%. Moreover, the Emax in the assay with MCF7 cell was determined as 113%; in the assay on MCF7 ERαY537S it was 107%; in the assay with MCF7 D538G it was 103%. In addition, the “Covalent modification effect on the estrogen receptor ERα Y537S mutant-type” value in assay [3] came to 97%.

In the case of `O=C(/C=C/CN1CCC[C@@H](Oc2ccc(/C(=C(/CC(F)(F)F)c3ccccc3)c3ccc4[nH]nc(F)c4c3)cn2)C1)N1CCOCC1` [Example 12, (E)-1-Morpholino-4-((R)-3-((5-((Z)-4,4,4-trifluoro-1-(3-fluoro-1H-indazol-5-yl)-2-phenylbut-1-en-1-yl)pyridin-2-yl)oxy)piperidin-1-yl)but-2-en-1-one], the IC50 amounted to 2 nM in assay [1], 0.4 nM with MCF7 cell, 2 nM in the assay with MCF7 ERαY537S and 1 nM in the assay with MCF7 D538G. Further, the “Covalent modification effect on the estrogen receptor ERα wild-type” value in assay [2] stood at 85%. Besides, the Emax in the assay on MCF7 cell was determined as 108%; with MCF7 ERαY537S, 104%; in the assay on MCF7 D538G, 96%. Moreover, the “Covalent modification effect on the estrogen receptor ERα Y537S mutant-type” value in assay [3] stood at 83%.

As to `O=C(/C=C/CN1CCC[C@@H](Oc2ccc(/C(=C(/CC(F)(F)F)c3ccccc3)c3ccc4[nH]nc(F)c4c3)cn2)C1)N1CCNCC1` [Example 18, (E)-1-(Piperazin-1-yl)-4-((R)-3-((5-((Z)-4,4,4-trifluoro-1-(3-fluoro-1H-indazol-5-yl)-2-phenylbut-1-en-1-yl)pyridin-2-yl)oxy)piperidin-1-yl)but-2-en-1-one], the IC50 in assay [1] is 6 nM; in the assay with MCF7 cell, 1 nM; with MCF7 ERαY537S, 8 nM; with MCF7 D538G it was 5 nM. Further, the “Covalent modification effect on the estrogen receptor ERα wild-type” value in assay [2] is 98%. Besides, the Emax with MCF7 cell was found to be 100%; with MCF7 ERαY537S, 92%; in the assay with MCF7 D538G it was 104%. In addition, the “Covalent modification effect on the estrogen receptor ERα Y537S mutant-type” value in assay [3] is listed as 99%.

Take `CN(C)C(=O)/C=C/CN1CCC[C@@H](Oc2ccc(/C(=C(/CC(F)(F)F)c3ccc(F)cc3)c3ccc4[nH]nc(F)c4c3)cn2)C1` [Example 19, (E)-N,N-Dimethyl-4-((R)-3-((5-((Z)-4,4,4-trifluoro-1-(3-fluoro-1H-indazol-5-yl)-2-(4-fluorophenyl)but-1-en-1-yl)pyridin-2-yl)oxy)piperidin-1-yl)but-2-enamide]: the IC50 in assay [1] was found to be 4 nM; with MCF7 cell it was 0.4 nM; in the assay with MCF7 ERαY537S it was 2 nM; in the assay with MCF7 D538G, 2 nM. The “Covalent modification effect on the estrogen receptor ERα wild-type” value in assay [2] was determined as 94%. Further, the results for the Emax with MCF7 cell, in the assay on MCF7 ERαY537S and in the assay on MCF7 D538G were 97%, 106% and 97%, respectively. The “Covalent modification effect on the estrogen receptor ERα Y537S mutant-type” value in assay [3] amounted to 97%.
